Results as given in patent publication US9018438B2, “Screening method for anticancer drugs” (Kyoto University, priority 2010, dated 2015).
Structures can show the parent of a compound that is named as a salt. Where two headings read alike, the source gives them in different places.

Legend:
endogenous RECK = assay: Endogenous RECK mRNA (RT-PCR) and protein (immunoblotting) expression in RM72 cells; format: cell-based, human; conditions: 48 hours, Lyc 1.3 μM, Hr 11 μM
Text: Relative band intensities were obtained by normalization against HPRT1 for the mRNA and against GAPDH for the protein and subsequent division by the normalized value for the cells treated with the vehicle.

RM72 cells [1] = assay: IC30 concentration in RM72 cells; format: cell-based, human
Reck gene promoter [2] = assay: SEAP assay in YM3 cells (Reck gene promoter-reporter system); format: cell-based, mouse
Procedure: A 4.1-kb upstream region of a mouse Reck gene (Gene ID: 53614, Chromosome 4—NC—000070.5 43884251-43888453) was inserted into a pSEAP2-Basic vector (Clontech) to give a pSEAP-RP4.1 plasmid. […] Biochem Biophys Res Commun 1999; 264: 668-675.). […] TF323-C3 cells can be distributed from one of the inventors Makoto Noda.
YM3 cells were seeded onto 96-well plates at 1×10^4 cells in 100 μl per well and incubation was performed for 5 hours to allow the cells to settle. A compound solution (500 μM, 1 μl) was added to the medium. The employed test compounds were those in the chemical library Prestwick Chemical Library (Prestwick Chemical, Illkirch, France), which is composed of 880 structurally diverse known bioactive compounds, dissolved in nano-pure grade dimethyl sulfoxide (DMSO; Wako). […] A vehicle (DMSO, 1 μl) alone as a negative control and hypothemycin (HPM, 1 mg/ml) as a positive control were added to two wells per plate. Each sample was tested on two different plates (duplicate samples).
After incubation for 48 hours, a portion (10 μl) of the culture supernatant was sampled, incubated at 65° C. (heat treatment) for 30 minutes, and then subjected to the SEAP assay using Great EscAPe™ SEAP Chemiluminescence Detection Kit (Takara Bio). The remaining medium and the cells were subjected to the cell-counting assay using SF reagent. That is, SF reagent (Nacalai) (10 μl per well) was added to the medium, the plates were incubated for 3 hours in a CO2 incubator, and the absorbance at 450 nm (A450) was measured to obtain relative cell numbers. For the SEAP activity data, “SEAP measured value/A450 value” was defined as “SEAP activity per cell”, and the value obtained by dividing “SEAP activity per cell” of each compound by “SEAP activity per cell” of the negative control was defined as “relative SEAP activity”. The mean “relative SEAP activity” of the duplicate samples and the standard error thereof were determined. For the cell number data, the value obtained by dividing the SF measured value of each compound by the SF measured value of the negative control was defined as “relative cell number”, and the mean value of the duplicate samples and the standard error thereof were determined. Samples with a large standard error were tested again. In the experiment, duplicate samples were prepared each in a regular liquid medium and in a liquid medium containing Dox (2 μg/ml), and four mean values (the relative cell number and the relative SEAP activity in the Ras-ON state and the relative cell number and the relative SEAP activity in the Ras-OFF state) were obtained (see FIG. 3).

Reck gene promoter [3] = assay: as above; format: cell-based, mouse; conditions: determined by dose-response assays (0.0617, 0.185, 0.556, 1.67, 5.00 μM) using YM3 cells
RM72 cells [4] = format: in vivo; conditions: for anticancer activity / cancer metastasis suppressing activity: summary statement
Procedure: RM72 cells (3×10^6 cells) suspended in 0.1 ml of PBS were subcutaneously injected into the right posterior flank of Balb/c nude mice (6 weeks old, male, Charles River). […]. After 14-day treatment, the mice were anesthetized and their bioluminescence was recorded by the method described below. After the whole-body recording of the bioluminescence, the lung was resected, washed with PBS (−), and subjected to bioluminescence recording. The tumor size (length×width×height) was measured once a week. Statistical significance was assessed by Student's t-test.
Mice under anesthesia were intraperitoneally injected with 75 mg/kg of d-luciferin dissolved in PBS (−). Bioluminescence images were acquired with IVIS ImagingSystem (Xenogen) at 5 minutes after the injection (Wang S, El-Deiry W S. Requirement of p53 targets in chemosensitization of colonic carcinoma to death ligand therapy. Proc Natl Acad Sci USA 2003; 100: 15095-15100; Minn A J, Kang Y, Serganova I, Gupta G P, Giri D D, Doubrovin M, Ponomarev V, Gerald W L, Blasberg R, Massague J. Distinct organ-specific metastatic potential of individual breast cancer cells and primary tumors. J Clin Invest 2005; 115: 44-55). The photons emitted from the whole bodies or the isolated organs were collected for a period of 60 seconds and integrated. The images were analyzed using Living Image software (Xenogen).
The anti-tumorigenic and anti-metastatic activities of Pyt, Hr, Gra and Lyc were investigated with the same protocol as in Example 9. The experiment was conducted in two batches: Experiment 1 for three groups of a Pyt group, a Hr group and a vehicle group and Experiment 2 for three groups of a Gra group, a Lyc group and a vehicle group. The doses of the test compounds were set at two different quantities considered to be appropriate based on literature (see Tables 3 and 4).

pro-MMP-9 = assay: Gelatin zymography of RM72 culture supernatant, MMP-9; format: cell-based, human; conditions: RM72 cells; DSF 16 μM, DXR 210 nM, Gra 32 nM, Pyt 5 μM; 48 hours
Procedure: Gelatin zymography with the culture supernatant of RM72 cells treated with DSF, DXR, Gra, Pyt, pDTC, HPM, and DMSO (vehicle) was performed. Specifically, RM72 cells (2×10^4 cells per well) seeded onto 96-well plates were incubated for 24 hours, and the medium was replaced with a medium containing each of the above compounds (DSF: 16 μM, DXR: 210 nM, Gra: 32 nM, Pyt: 5 μM, HPM: 1 μg/ml, pDTC: 20 μM). After incubated for 48 hours, the medium was replaced with 100 μl of DMEM containing 0.1% FBS and incubated for additional 12 hours. The culture supernatant was harvested, cleared of a solid matter by centrifugation, and analyzed by gelatin zymography in accordance with the method described in literature (Takahashi C, Sheng Z, Horan. T P, Kitayama H, Maki M, Hitomi K, Kitaura Y, Takai S, Sasahara R M, Horimoto A, Ikawa Y, Ratzkin B J, Arakawa T, Noda M. Regulation of matrix metalloproteinase-9 and inhibition of tumor invasion by the membrane-anchored glycoprotein RECK. Proc Natl Acad Sci USA 1998; 95: 13221-13226). The band intensities were normalized against the cell number determined by the SF assay.

[5] = in the presence of Dox (HRAS12V-off)
[6] = relative SEAP activity at optimal conc., YM3 cells, regular medium (Ras-ON)

Cl.O[C@H]1[C@H]2c3cc4c(cc3CN3CCC(=C[C@@H]1O)[C@H]23)OCO4 [Lycorine hydrochloride]
expression of RECK mRNA (endogenous RECK): increased the expression | expression of RECK protein (endogenous RECK): reduced the expression | IC30 (RM72 cells [1]): 1.3 µM | Activity in Dox (Reck gene promoter [2]; [5]): + (more than 1.9-fold) | Induction (fold) (Reck gene promoter [2]; [6]): 3.44 fold | Optimal conc. (Reck gene promoter [3]): 5.00 µM | anti-tumorigenic activity (RM72 cells [4]; both doses): strong | anti-metastatic activity (RM72 cells [4]; high dose): strong | anti-metastatic activity (RM72 cells [4]; low dose): weak | Lung metastasis Mean (RM72 cells [4]; relative lung metastasis, vehicle = 100, 2.5 mg/kg/day): 65.5 | Lung metastasis Mean (RM72 cells [4]; relative lung metastasis, vehicle = 100, 7.5 mg/kg/day): 17.7 | Tumor Mean (RM72 cells [4]; relative tumor size, vehicle = 100, 2.5 mg/kg/day): 69.7 | Tumor Mean (RM72 cells [4]; relative tumor size, vehicle = 100, 7.5 mg/kg/day): 70.9 | anticancer activity (RM72 cells [4]): confirmed | cancer metastasis suppressing activity (RM72 cells [4]): confirmed

[O-][n+]1ccccc1S [Pyrithione sodium salt]
Activity in Dox (Reck gene promoter [2]): + (key: +: more than 1.9-fold; ±: between 1.9 and 1.5-fold; −: less than 1.5-fold) | Induction (fold) (Reck gene promoter [2]): 17.5 fold | Lung metastasis Mean (RM72 cells [4]; mouse, in vivo, 15 mg/kg/day): 11.6 | Tumor Mean (RM72 cells [4]; mouse, in vivo, 15 mg/kg/day): 52.2 | Lung metastasis Mean (RM72 cells [4]; mouse, in vivo, 50 mg/kg/day): 84.2 | Tumor Mean (RM72 cells [4]; mouse, in vivo, 50 mg/kg/day): 74.4

COc1ccc2c(c1)[nH]c1c(C)nccc12.Cl [Harmine hydrochloride]
expression of RECK mRNA (endogenous RECK): increased the expression | expression of RECK protein (endogenous RECK): increased the expression | IC30 (RM72 cells [1]): 11 µM | Activity in Dox (Reck gene promoter [2]; [5]): ± (between 1.9 and 1.5-fold) | Induction (fold) (Reck gene promoter [2]; [6]): 2.44 fold | anti-metastatic activity (RM72 cells [4]; both doses): strong | anti-tumorigenic activity (RM72 cells [4]; both doses): strong | Lung metastasis Mean (RM72 cells [4]; relative lung metastasis, vehicle = 100, 3 mg/kg/day): 22.0 | Lung metastasis Mean (RM72 cells [4]; relative lung metastasis, vehicle = 100, 10 mg/kg/day): 25.7 | Tumor Mean (RM72 cells [4]; relative tumor size, vehicle = 100, 3 mg/kg/day): 56.4 | Tumor Mean (RM72 cells [4]; relative tumor size, vehicle = 100, 10 mg/kg/day): 47.2 | anticancer activity (RM72 cells [4]): confirmed | cancer metastasis suppressing activity (RM72 cells [4]): confirmed

Trimeprazine tartrate
Activity in Dox (Reck gene promoter [2]; [5]): − (less than 1.5-fold) | Induction (fold) (Reck gene promoter [2]; [6]): 2.30 fold | Optimal conc. (Reck gene promoter [3]): 5.00 µM

Meclocycline sulfosalicylate
Activity in Dox (Reck gene promoter [2]; [5]): − (less than 1.5-fold) | Induction (fold) (Reck gene promoter [2]; [6]): 2.59 fold | Optimal conc. (Reck gene promoter [3]): 0.0617 µM

CN(C)c1ccc(O)c2c1C[C@H]1C[C@H]3[C@H](N(C)C)C(O)=C(C(N)=O)C(=O)[C@@]3(O)C(O)=C1C2=O [Minocycline hydrochloride]
Activity in Dox (Reck gene promoter [2]; [5]): − (less than 1.5-fold) | Induction (fold) (Reck gene promoter [2]; [6]): 2.54 fold

CN(C)[C@@H]1C(O)=C(C(N)=O)C(=O)[C@@]2(O)C(O)=C3C(=O)c4c(O)ccc(Cl)c4[C@@H](O)[C@H]3C[C@@H]12 [Demeclocycline hydrochloride]
Activity in Dox (Reck gene promoter [2]; [5]): − (less than 1.5-fold) | Induction (fold) (Reck gene promoter [2]; [6]): 2.57 fold

Gramicidin
pro-MMP-9 level in the culture supernatant (pro-MMP-9): reduced | Optimal conc. (Reck gene promoter [2]): 5.00 µM | Activity in Dox (Reck gene promoter [2]; [5]): + (more than 1.9-fold) | Induction (fold) (Reck gene promoter [2]; [6]): 7.30 fold | anti-metastatic activity (RM72 cells [4]; both doses): strong | anti-tumorigenic activity (RM72 cells [4]; both doses): weak | Lung metastasis Mean (RM72 cells [4]; relative lung metastasis, vehicle = 100, 0.03 mg/kg/day): 42.0 | Lung metastasis Mean (RM72 cells [4]; relative lung metastasis, vehicle = 100, 0.1 mg/kg/day): 27.4 | Tumor Mean (RM72 cells [4]; relative tumor size, vehicle = 100, 0.03 mg/kg/day): 89.3 | Tumor Mean (RM72 cells [4]; relative tumor size, vehicle = 100, 0.1 mg/kg/day): 83.1 | anticancer activity (RM72 cells [4]): confirmed | cancer metastasis suppressing activity (RM72 cells [4]): confirmed

CC[C@H]1CN2CCc3cc(OC)c(OC)cc3[C@@H]2C[C@@H]1C[C@H]1NCCc2cc(OC)c(OC)cc21 [Emetine dihydrochloride]
Activity in Dox (Reck gene promoter [2]; [5]): − (less than 1.5-fold) | Induction (fold) (Reck gene promoter [2]; [6]): 3.79 fold

COc1cccc2c1C(=O)c1c(O)c3c(c(O)c1C2=O)C[C@@](O)(C(=O)CO)C[C@@H]3O[C@H]1C[C@H](N)[C@H](O)[C@H](C)O1 [Doxorubicin hydrochloride]
pro-MMP-9 level in the culture supernatant (pro-MMP-9): reduced | Activity in Dox (Reck gene promoter [2]; [5]): + (more than 1.9-fold) | Induction (fold) (Reck gene promoter [2]; [6]): 8.55 fold

CCCSc1ccc2nc(NC(=O)OC)[nH]c2c1 [Albendazole]
Activity in Dox (Reck gene promoter [2]): ± (key: +: more than 1.9-fold; ±: between 1.9 and 1.5-fold; −: less than 1.5-fold) | Induction (fold) (Reck gene promoter [2]): 2.89 fold

CC(=O)O[C@H]1C(=O)[C@@]2(C)[C@H]([C@H](OC(=O)c3ccccc3)[C@]3(O)C[C@H](OC(=O)[C@H](O)[C@@H](NC(=O)c4ccccc4)c4ccccc4)C(C)=C1C3(C)C)[C@]1(OC(C)=O)CO[C@@H]1C[C@@H]2O [Paclitaxel]
Activity in Dox (Reck gene promoter [2]; [5]): ± (between 1.9 and 1.5-fold) | Induction (fold) (Reck gene promoter [2]; [6]): 3.32 fold

Nc1nc(N)c2nc(-c3ccccc3)c(N)nc2n1 [Triamterene]
Activity in Dox (Reck gene promoter [2]; [5]): − (less than 1.5-fold) | Induction (fold) (Reck gene promoter [2]; [6]): 2.25 fold

CN(Cc1cnc2nc(N)nc(N)c2n1)c1ccc(C(=O)N[C@@H](CCC(=O)O)C(=O)O)cc1 [Methotrexate]
Activity in Dox (Reck gene promoter [2]; [5]): ± (between 1.9 and 1.5-fold) | Induction (fold) (Reck gene promoter [2]; [6]): 3.42 fold
